In patent publication US6005007A, “Retinoids, methods for their production and use” (priority 1997, dated 1999):

Columns and labels:
RAR and RXR receptors = assay: Co-transfection assay, RAR and RXR subfamilies (summary in words); format: cell-based; conditions: CV-1 cells
Experimental: Utilizing the "cis-trans" or "co-transfection" assay described by Evans et al., Science, 240:889-95 (May 13, 1988), the disclosure of which is herein incorporated by reference, the retinoid compounds of the present invention were tested and found to have strong, specific activity as either selective RXR agonists, or as pan-agonist activators of both RAR and RXR receptors. This assay is described in further detail in U.S. Pat. Nos. 4,981,784 and 5,071,773, the disclosures of which are incorporated herein by reference.
In the co-transfection assay, a cloned cDNA for an IR (e.g., human RARα, RARβ, RXRγ) under the control of a constitutive promoter (e.g., the SV 40 promoter) is introduced by transfection (a procedure to induce cells to take up foreign genes) into a background cell substantially devoid of endogenous IRs. This introduced gene directs the recipient cells to make the IR protein of interest. A second gene is also introduced (co-transfected) into the same cells in conjunction with the IR gene. This second gene, comprising the cDNA for a reporter protein, such as firefly luciferase (LUC), controlled by an appropriate hormone responsive promoter containing a hormone response element (HRE). This reporter plasmid functions as a reporter for the transcription-modulating activity of the target IR. Thus, the reporter acts as a surrogate for the products (mRNA then protein) normally expressed by a gene under control of the target receptor and its native hormone.
The co-transfection assay can detect small molecule agonists or antagonists of target IRs. Exposing the transfected cells to an agonist ligand compound increases reporter activity in the transfected cells. This activity can be conveniently measured, e.g., by increasing luciferase production, which reflects compound-dependent, IR-mediated increases in reporter transcription. […]. Increasing concentrations of a suspected antagonist will decrease the reporter signal (e.g., luciferase production). The co-transfection assay is therefore useful to detect both agonists and antagonists of specific IRs. […]

RARβ = molecular target: T1, RARβ (Homo sapiens, UniProt P10826); assay: Receptor binding, RARβ; conditions: tritiated retinoid competition
T1 sequence (P10826 1-448 isoform P10826-2): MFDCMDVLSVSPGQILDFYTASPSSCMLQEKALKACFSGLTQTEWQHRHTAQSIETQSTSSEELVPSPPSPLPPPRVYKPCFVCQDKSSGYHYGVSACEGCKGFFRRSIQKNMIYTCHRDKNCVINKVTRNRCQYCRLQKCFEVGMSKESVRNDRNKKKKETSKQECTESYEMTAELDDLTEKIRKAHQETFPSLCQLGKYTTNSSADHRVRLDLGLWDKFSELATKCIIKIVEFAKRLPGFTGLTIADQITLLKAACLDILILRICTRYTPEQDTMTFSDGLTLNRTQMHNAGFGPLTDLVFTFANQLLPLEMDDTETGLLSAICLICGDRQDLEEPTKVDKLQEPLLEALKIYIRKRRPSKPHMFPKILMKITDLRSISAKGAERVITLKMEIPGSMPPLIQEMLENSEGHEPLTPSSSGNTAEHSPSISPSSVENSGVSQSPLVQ

RXRβ [1] = molecular target: T2, RXRβ (Mus musculus, UniProt P28704); assay: Receptor binding, RXRβ; conditions: tritiated retinoid competition
T2 sequence (P28704 1-520): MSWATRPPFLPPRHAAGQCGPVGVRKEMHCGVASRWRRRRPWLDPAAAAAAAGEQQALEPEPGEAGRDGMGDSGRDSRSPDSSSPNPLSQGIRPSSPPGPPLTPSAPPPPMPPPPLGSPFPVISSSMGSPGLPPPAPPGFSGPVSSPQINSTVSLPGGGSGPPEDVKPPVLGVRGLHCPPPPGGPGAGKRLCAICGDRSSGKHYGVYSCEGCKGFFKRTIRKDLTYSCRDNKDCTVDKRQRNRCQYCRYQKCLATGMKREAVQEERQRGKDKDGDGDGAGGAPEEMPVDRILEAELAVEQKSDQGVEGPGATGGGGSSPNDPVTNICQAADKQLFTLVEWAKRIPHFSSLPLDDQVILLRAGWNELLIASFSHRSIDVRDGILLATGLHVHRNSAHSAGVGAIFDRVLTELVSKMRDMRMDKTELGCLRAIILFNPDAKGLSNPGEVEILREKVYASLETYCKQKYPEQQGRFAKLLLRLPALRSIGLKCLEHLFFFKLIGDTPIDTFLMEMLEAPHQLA

RARγ = molecular target: T3, RARγ (Homo sapiens, UniProt P13631); assay: Receptor binding, RARγ; conditions: tritiated retinoid competition
T3 sequence (P13631 1-454): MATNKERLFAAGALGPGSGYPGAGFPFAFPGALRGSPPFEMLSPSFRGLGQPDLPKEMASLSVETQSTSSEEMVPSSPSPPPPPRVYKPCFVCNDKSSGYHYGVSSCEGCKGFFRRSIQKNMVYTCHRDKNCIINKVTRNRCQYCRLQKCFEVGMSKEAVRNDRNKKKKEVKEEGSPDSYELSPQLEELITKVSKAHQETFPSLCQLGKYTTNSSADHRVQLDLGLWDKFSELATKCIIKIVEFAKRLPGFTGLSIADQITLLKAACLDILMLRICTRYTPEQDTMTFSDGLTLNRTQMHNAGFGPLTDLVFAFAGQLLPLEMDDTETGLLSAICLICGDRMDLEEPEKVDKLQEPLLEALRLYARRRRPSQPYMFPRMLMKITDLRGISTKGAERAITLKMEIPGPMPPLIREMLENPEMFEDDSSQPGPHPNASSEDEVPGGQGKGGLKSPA

RXRβ [2] = molecular target: T2, RXRβ; assay: Co-transfection assay, RXRβ agonist activity; format: cell-based; conditions: CV-1 cells, luciferase reporter, read-out: RXRβ Pot

Row | Structure (SMILES) | RXR selectivity / pan-agonist activity (RAR and RXR receptors) | Kd (RARβ) | Kd (RXRβ [1]) | Kd (RARγ) | EC50 (RXRβ [2])
1 | CC(/C=C/CC1(c2ccc3c(c2)C(C)(C)CCC3(C)C)CC1)=C\C(=O)O [Compound 101, (2E, 4E)-6-[1-(5,5,8,8-Tetramethyl-5,6,7,8-tetrahydronaphtha-len-2-yl)cyclopropanyl]-3-methyl hexadienoic acid] | pan-agonists that display superior potency profiles to that of the known pan-agonist compound 9-cis retinoic acid | 463 nM | 6 nM | 552 nM | 6 nM
2 | CC(/C=C/CC1(c2cc(C(C)(C)C)cc3c2CCC3(C)C)CC1)=C\C(=O)O [Compound 107, (2E, 4E)-6-[1-(6-t-butyl-1,1-dimethyl-indan-4-yl)-cyclopropyl]-3-methyl hexadienoic acid] | extremely potent RXR selective compounds | > 5000 nM | 15 nM | > 5000 nM | 22 nM
3 | CC(/C=C/CC1(c2ccc3c(c2)C(C)(C)CCC3(C)C)CCCC1)=C\C(=O)O [Compound 108, (2E, 4E)-6-[(5,5,8,8-Tetramethyl-5,6,7,8-tetrahydronaphtha-len-2-yl)cyclopentane-1-yl]-3-methyl hexadienoic acid] | extremely potent RXR selective compounds | > 5000 nM | 357 nM | > 5000 nM | 
